One molecule from patent US20130123287A1, “CONTROL AGENT FOR SOFT ROT AND CONTROL METHOD FOR THE SAME” (ISHIHARA SANGYO KAISHA, LTD., priority 2010, published 2013) can be followed below.

Assay [1] has as its system bacteria causing the soft rot (Erwinia carotovora). Kind of assay: Inhibition test of growth of bacteria causing soft rot, Reference Test Example 1. The assay is classed as cell-based. The settings on record: for formed colonies (growth state), grade: PSA medium, 25 degrees Celsius, 4 days. Here is the method:
An inhibition test of the growth of bacteria causing the soft rot was done, when a control agent was directly applied to the bacteria causing the soft rot. A given volume of each pesticide of cyazofamid (RANMAN 400SC [trade name] manufactured by Ishihara Sangyo Kaisha, Ltd.), amisulbrom (LEIMAY FLOWABLE [trade name], manufactured by Nissan Chemical Industries, Ltd.) and streptomycin (Mycin Wettable powder [trade name] manufactured by Hokko Chemical Industry Co., Ltd.) was added together with a suspension of the bacteria causing the soft rot (Erwinia carotovora) to a preliminarily dissolved PSA culture medium (55 degrees Celsius) for subsequent thorough agitation, which was then spread on a plate for culturing at 25 degrees Celsius for 4 days, to examine the growth state. Subsequently, the formed colonies were examined according to the following three grades. • +: at the same level as the level of non-treated lot.
Plus or minus: apparently less than the colonies of the non-treated lot. • −: almost no colonies observed.

Assay [2] deals with soft rot of Chinese cabbage. Kind of assay: Test for controlling soft rot of Chinese cabbage, Example 1 / Comparative Example 1 (field, cultivar Muso). The assay is classed as in vivo. The following applies: 1/1000 dilution, 300 L/10a sprayed three times on stems and leaves, 54 days after start. Here is the method:
200 g/l Azoxystrobin (Amistar 20 FLOWABLE [trade name], manufactured by Syngenta Japan K.K.) was adjusted to 250 g ai/10a (0.25 g/m^2, 1250 ml Product/10a) as the amount of the active ingredient and to 150 L/10a as the volume of diluent water.
100 g/l Cyazofamid (RANMAN FLOWABLE [trade name], manufactured by Ishihara Sangyo Kaisha, Ltd.) was adjusted to 250 g ai/10a (0.25 g/m^2, 2500 ml Product/10a) as the amount of the active ingredient and to 150 L/10a as the volume of diluent water.
177 g/l Amisulbrom (LEIMAY FLOWABLE [trade name], manufactured by Nissan Chemical Industries, Ltd.) was adjusted individually to 250 g ai/10a (0.25 g/m^2, 1412 ml Product/10a) as the amount of the active ingredient and to 150 L/10a as the volume of diluent water.
After spreading an agricultural mulch-sheet and opening planting holes (diameter of about 9 cm) for permanent planting through the mulch-sheet, the spray solutions prepared as described above were sprayed onto the planting holes such that the amount of treated active ingredient of each spray solution was 0.25 g/m^2 (150 L per 10a), followed by air-drying; subsequently, seedlings of Chinese cabbage (cultivar: Muso) grown for 4 weeks in cell mold trays (128 holes/nursery box) were planted such that 30 seedlings were planted in each test lot having an area of 6 m^2 with two replications.
Preparation was performed by diluting streptomycin (Mycin 20 wettable powder solution [under the trade name] manufactured by Hokko Chemical Industry Co., Ltd.) with water to 1/1000.
In a field spread with the agricultural mulch-sheet, Chinese cabbage seedlings (cultivar: Muso) grown by the same method as in Example 1 were planted by the same method as in Example 1, for spraying the spray solution of streptomycin prepared above in (1) (at each spray volume of 300 L/10a) three times (13 days, 20 days and 27 days after the planting of the seedlings) on the stems and leaves.
54 days after the start of the tests, all the plants in each lot were examined about the severity level of the disease; according to the following equations, the ratio of the plants with the onset of the disease, the frequency of the disease, and the disease control value were calculated to determine and rank the effects at A to D levels. Because soft rot is a disease with damages hardly controlled, herein, even a chemical at the level C determined by the tests of the effects can practically be used.
Ratio of the plants with the onset of the disease=(Number of plants with the onset of the disease/number of plants examined)*100
Frequency of the disease=[sigma(number of plants with the onset of the disease at each severity level*index of the onset of the disease)/(plants examined*4)]*100 […]

Regarding `[H]/N=C(/N)N[C@H]1[C@H](O)[C@@H](O)[C@H](O[C@@H]2O[C@@H](C)[C@](O)(C=O)[C@H]2O[C@@H]2O[C@@H](CO)[C@H](O)[C@@H](O)[C@@H]2NC)[C@@H](N/C(N)=N\[H])[C@@H]1O` [Streptomycin], the “formed colonies (growth state), grade” value in assay [1] (1 ppm active ingredient) is “−, −”; in assay [1] (10 ppm active ingredient), “−, −”. For the same molecule, the “direct antibacterial activity against Erwinia carotovora (in words)” value in assay [1] (active ingredient concentration of 1 ppm) is on record as “exerted a direct antibacterial activity”. Moreover, the Determination of effect result in assay [2] is reported as “D (D: Poorly effective (20 or smaller disease control value))”.
